Source: US10301280B2 (Plexxikon Inc., priority 2012, dated 2019)

Test system: BaF3-FL KIT D816V or BaF3-FL KIT V560G/D816V cell line
Assay: Cell-based assays of c-Kit mutant kinase activity (cell growth, ATPlite)
Conditions: at least one of the c-kit cell assays of Example 26
Method in brief: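 IC50 derived from ATP-content luminescence (ATPlite) after three-day compound exposure at 37° C., 5% CO2. Cells: BaF3 rendered growth-dependent on full-length human KIT D816V or V560G/D816V, 1×10^4 per well, RPMI plus 10% FBS; 8 points, 1:3 steps, maximum 10 μM final, 0.2% DMSO.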

SMILES | IC50
Cc1[nH]nc(C(=O)Nc2cnc3[nH]c(-c4ccnc(N5CCCC(O)C5)c4)cc3c2)c1C (centres unmarked) [P-2213, N-(2-(2-(3-hydroxypiperidin-1-yl)pyridin-4-yl)-1H-pyrrolo[2,3-b]pyridin-5-yl)-4,5-dimethyl-1H-pyrazole-3-carboxamide] | < 10 µM
CC(=O)N1CCN(c2cc(-c3cc4cc(NC(=O)c5n[nH]c(C)c5C)cnc4[nH]3)ccn2)CC1 [P-2214, N-(2-(2-(4-acetylpiperazin-1-yl)pyridin-4-yl)-1H-pyrrolo[2,3-b]pyridin-5-yl)-4,5-dimethyl-1H-pyrazole-3-carboxamide] | < 10 µM
CC(C)=CC(=O)N1CCN(c2cc(-c3cc4cc(NC(=O)c5n[nH]c(C)c5C)cnc4[nH]3)ccn2)CC1 [P-2215, 4,5-dimethyl-N-(2-(2-(4-(3-methylbut-2-enoyl)piperazin-1-yl)pyridin-4-yl)-1H-pyrrolo[2,3-b]pyridin-5-yl)-1H-pyrazole-3-carboxamide] | < 10 µM
Cc1[nH]nc(C(=O)Nc2cnc3[nH]c(-c4ccnc(C(=O)N5CCOCC5)c4)cc3c2)c1C [P-2216, 4,5-dimethyl-N-(2-(2-(morpholine-4-carbonyl)pyridin-4-yl)-1H-pyrrolo[2,3-b]pyridin-5-yl)-1H-pyrazole-3-carboxamide] | < 10 µM
Cc1[nH]nc(C(=O)Nc2cnc3[nH]c(-c4ccnc(C(=O)N5CCN(C)CC5)c4)cc3c2)c1C [P-2217, 4,5-dimethyl-N-(2-(2-(4-methylpiperazine-1-carbonyl)pyridin-4-yl)-1H-pyrrolo[2,3-b]pyridin-5-yl)-1H-pyrazole-3-carboxamide] | < 10 µM
Cc1[nH]nc(C(=O)Nc2cnc3[nH]c(-c4ccnc(C(=O)N5CCCC5)c4)cc3c2)c1C [P-2218, 4,5-dimethyl-N-(2-(2-(pyrrolidine-1-carbonyl)pyridin-4-yl)-1H-pyrrolo[2,3-b]pyridin-5-yl)-1H-pyrazole-3-carboxamide] | < 10 µM
Cc1[nH]nc(C(=O)Nc2cnc3[nH]c(-c4ccnc(C(=O)N5CCSCC5)c4)cc3c2)c1C [P-2219, 4,5-dimethyl-N-(2-(2-(thiomorpholine-4-carbonyl)pyridin-4-yl)-1H-pyrrolo[2,3-b]pyridin-5-yl)-1H-pyrazole-3-carboxamide] | < 10 µM
COCCNC(=O)c1cc(-c2cc3cc(NC(=O)c4n[nH]c(C)c4C)cnc3[nH]2)ccn1 [P-2220, 4-(5-(4,5-dimethyl-1H-pyrazole-3-carboxamido)-1H-pyrrolo[2,3-b]pyridin-2-yl)-N-(2-methoxyethyl)picolinamide] | < 10 µM
Cc1[nH]nc(C(=O)Nc2cnc3[nH]c(-c4ccnc(C(=O)NCCN(C)C)c4)cc3c2)c1C [P-2221, 4-(5-(4,5-dimethyl-1H-pyrazole-3-carboxamido)-1H-pyrrolo[2,3-b]pyridin-2-yl)-N-(2-(dimethylamino)ethyl)picolinamide] | < 10 µM
CONC(=O)c1cc(-c2cc3cc(NC(=O)c4n[nH]c(C)c4C)cnc3[nH]2)ccn1 [P-2223, 4-(5-(4,5-dimethyl-1H-pyrazole-3-carboxamido)-1H-pyrrolo[2,3-b]pyridin-2-yl)-N-methoxypicolinamide] | < 10 µM
Cc1[nH]nc(C(=O)Nc2cnc3[nH]c(-c4ccnc(C(=O)N(C)C)c4)cc3c2)c1C [P-2224, 4-(5-(4,5-dimethyl-1H-pyrazole-3-carboxamido)-1H-pyrrolo[2,3-b]pyridin-2-yl)-N,N-dimethylpicolinamide] | < 10 µM
Cc1[nH]nc(C(=O)Nc2cnc3[nH]c(-c4ccnc(C(=O)NCCN5CCOCC5)c4)cc3c2)c1C [P-2225, 4-(5-(4,5-dimethyl-1H-pyrazole-3-carboxamido)-1H-pyrrolo[2,3-b]pyridin-2-yl)-N-(2-morpholinoethyl)picolinamide] | < 10 µM
Cc1[nH]nc(C(=O)Nc2cnc3[nH]c(-c4ccnc(C(=O)NCCN5CCN(C)CC5)c4)cc3c2)c1C [P-2226, 4-(5-(4,5-dimethyl-1H-pyrazole-3-carboxamido)-1H-pyrrolo[2,3-b]pyridin-2-yl)-N-(2-(4-methylpiperazin-1-yl)ethyl)picolinamide] | < 10 µM
Cc1[nH]nc(C(=O)Nc2cnc3[nH]c(-c4ccnc(C(=O)NCCC#N)c4)cc3c2)c1C [P-2227, N-(2-cyanoethyl)-4-(5-(4,5-dimethyl-1H-pyrazole-3-carboxamido)-1H-pyrrolo[2,3-b]pyridin-2-yl)picolinamide] | < 10 µM
Cc1[nH]nc(C(=O)Nc2cnc3[nH]c(-c4ccnc(C(=O)NCC(C)C)c4)cc3c2)c1C [P-2228, 4-(5-(4,5-dimethyl-1H-pyrazole-3-carboxamido)-1H-pyrrolo[2,3-b]pyridin-2-yl)-N-isobutylpicolinamide] | < 10 µM
Cc1[nH]nc(C(=O)Nc2cnc3[nH]c(-c4ccnc(C(=O)NC(C)C)c4)cc3c2)c1C [P-2229, 4-(5-(4,5-dimethyl-1H-pyrazole-3-carboxamido)-1H-pyrrolo[2,3-b]pyridin-2-yl)-N-isopropylpicolinamide] | < 10 µM
CCN(CC)C(=O)c1cc(-c2cc3cc(NC(=O)c4n[nH]c(C)c4C)cnc3[nH]2)ccn1 [P-2230, 4-(5-(4,5-dimethyl-1H-pyrazole-3-carboxamido)-1H-pyrrolo[2,3-b]pyridin-2-yl)-N,N-diethylpicolinamide] | < 10 µM
Cc1c(C(=O)Nc2cnc3[nH]c(-c4ccccc4)cc3c2)n[nH]c1C(F)(F)F [P-2231, 4-methyl-N-(2-phenyl-1H-pyrrolo[2,3-b]pyridin-5-yl)-5-(trifluoromethyl)-1H-pyrazole-3-carboxamide] | < 10 µM

SMILES | IC50
O=C(Nc1cnc2[nH]c(-c3ccccc3)cc2c1)c1n[nH]c(C(F)(F)F)c1Cl [P-2232, 4-chloro-N-(2-phenyl-1H-pyrrolo[2,3-b]pyridin-5-yl)-5-(trifluoromethyl)-1H-pyrazole-3-carboxamide] | < 10 µM
O=C(Nc1cnc2[nH]c(-c3ccccc3)cc2c1)c1n[nH]c(Cl)c1C(F)(F)F [P-2233, 5-chloro-N-(2-phenyl-1H-pyrrolo[2,3-b]pyridin-5-yl)-4-(trifluoromethyl)-1H-pyrazole-3-carboxamide] | < 10 µM
Cc1c(C(=O)Nc2cnc3[nH]c(-c4ccccc4)cc3c2)n[nH]c1C(F)F [P-2234, 5-(difluoromethyl)-4-methyl-N-(2-phenyl-1H-pyrrolo[2,3-b]pyridin-5-yl)-1H-pyrazole-3-carboxamide] | < 10 µM
Cc1[nH]nc(C(=O)Nc2cnc3[nH]c(-c4ccccc4)cc3c2)c1C(F)F [P-2235, 4-(difluoromethyl)-5-methyl-N-(2-phenyl-1H-pyrrolo[2,3-b]pyridin-5-yl)-1H-pyrazole-3-carboxamide] | < 10 µM
O=C(Nc1cnc2[nH]c(-c3ccccc3)cc2c1)c1n[nH]c(Cl)c1C(F)F [P-2236, 5-chloro-4-(difluoromethyl)-N-(2-phenyl-1H-pyrrolo[2,3-b]pyridin-5-yl)-1H-pyrazole-3-carboxamide] | < 10 µM
O=C(Nc1cnc2[nH]c(-c3ccccc3)cc2c1)c1n[nH]c(C(F)F)c1Cl [P-2237, 4-chloro-5-(difluoromethyl)-N-(2-phenyl-1H-pyrrolo[2,3-b]pyridin-5-yl)-1H-pyrazole-3-carboxamide] | < 10 µM
COc1ncccc1-c1cc2cc(NC(=O)c3n[nH]c(C)c3C)cnc2[nH]1 [P-2238, N-(2-(2-methoxypyridin-3-yl)-1H-pyrrolo[2,3-b]pyridin-5-yl)-4,5-dimethyl-1H-pyrazole-3-carboxamide] | < 10 µM
CCOc1ncccc1-c1cc2cc(NC(=O)c3n[nH]c(C)c3C)cnc2[nH]1 [P-2239, N-(2-(2-ethoxypyridin-3-yl)-1H-pyrrolo[2,3-b]pyridin-5-yl)-4,5-dimethyl-1H-pyrazole-3-carboxamide] | < 10 µM
Cc1[nH]nc(C(=O)Nc2cnc3[nH]c(-c4cccnc4OC(F)F)cc3c2)c1C [P-2240, N-(2-(2-(difluoromethoxy)pyridin-3-yl)-1H-pyrrolo[2,3-b]pyridin-5-yl)-4,5-dimethyl-1H-pyrazole-3-carboxamide] | < 10 µM
Cc1[nH]nc(C(=O)Nc2cnc3[nH]c(-c4cccnc4C(F)(F)F)cc3c2)c1C [P-2241, 4,5-dimethyl-N-(2-(2-(trifluoromethyl)pyridin-3-yl)-1H-pyrrolo[2,3-b]pyridin-5-yl)-1H-pyrazole-3-carboxamide] | < 10 µM
COc1ccc(-c2cc3cc(NC(=O)c4n[nH]c(C)c4C)cnc3[nH]2)c(OC)n1 [P-2242, N-(2-(2,6-dimethoxypyridin-3-yl)-1H-pyrrolo[2,3-b]pyridin-5-yl)-4,5-dimethyl-1H-pyrazole-3-carboxamide] | < 10 µM
Cc1[nH]nc(C(=O)Nc2cnc3[nH]c(-c4cncc(C5CC5)c4)cc3c2)c1C [P-2243, N-(2-(5-cyclopropylpyridin-3-yl)-1H-pyrrolo[2,3-b]pyridin-5-yl)-4,5-dimethyl-1H-pyrazole-3-carboxamide] | < 10 µM
Cc1cc(-c2cc3cc(NC(=O)c4n[nH]c(C)c4C)cnc3[nH]2)cnc1C [P-2244, N-(2-(5,6-dimethylpyridin-3-yl)-H-pyrrolo[2,3-b]pyridin-5-yl)-4,5-dimethyl-1H-pyrazole-3-carboxamide] | < 10 µM
Cc1[nH]nc(C(=O)Nc2cnc3[nH]c(-c4ccnc(F)c4)cc3c2)c1C [P-2245, N-(2-(2-fluoropyridin-4-yl)-1H-pyrrolo[2,3-b]pyridin-5-yl)-4,5-dimethyl-1H-pyrazole-3-carboxamide] | < 10 µM
Cc1cc(-c2cc3cc(NC(=O)c4n[nH]c(C)c4C)cnc3[nH]2)ccn1 [P-2246, 4,5-dimethyl-N-(2-(2-methylpyridin-4-yl)-1H-pyrrolo[2,3-b]pyridin-5-yl)-1H-pyrazole-3-carboxamide] | < 10 µM
CCOc1cc(-c2cc3cc(NC(=O)c4n[nH]c(C)c4C)cnc3[nH]2)ccn1 [P-2247, N-(2-(2-ethoxypyridin-4-yl)-1H-pyrrolo[2,3-b]pyridin-5-yl)-4,5-dimethyl-1H-pyrazole-3-carboxamide] | < 10 µM
Cc1[nH]nc(C(=O)Nc2cnc3[nH]c(-c4ccnc(OC(C)C)c4)cc3c2)c1C [P-2248, N-(2-(2-isopropoxypyridin-4-yl)-1H-pyrrolo[2,3-b]pyridin-5-yl)-4,5-dimethyl-1H-pyrazole-3-carboxamide] | < 10 µM
